Active and inactive are the calls of the source. The rule behind the calls is not given here.
What was measured:
[1] = tested on: NCI-H460; assay: Downregulation of FLIP mRNA expression level in human NCI-H460 cells at 0.1 to 1 uM for 24 hrs by qRT-PCR analysis; assay type: functional, cell-based; conditions: dose 0.1-1 µM
[2] = tested on: NCI-H1373; assay: Induction of cell cycle arrest in human NCI-H1373 cells assessed as accumulation of cells at S phase at 0.1 uM for 24 hrs by Click-iT EdU Alexa Fluor 647 flow cytometric assay kit analysis (reference value: 45%); assay type: functional
[3] = tested on: A549; assay: Induction of cell cycle arrest in human A549 cells assessed as accumulation of cells at S phase at 1 uM for 24 hrs by Click-iT EdU Alexa Fluor 647 flow cytometric assay kit analysis (reference value: 35%); assay type: functional
[4] = tested on: NCI-H460; assay: Induction of apoptosis in human NCI-H460 cells assessed as viable cells at 2.5 uM for 24 hrs by annexin V-PI staining based flow cytometric analysis (reference value: 94%); assay type: functional; conditions: read-out: Activity
[5] = tested on: NCI-H2030; assay: Antiproliferative activity against human NCI-H2030 cells at 500 to 2500 nM in presence of TNF by cell titre glo assay; assay type: functional, cell-based; conditions: dose 500-2500 nM
[6] = tested on: LCLC-97TM1; assay: Downregulation of XIAP protein expression level in human LCLC-97TM1 cells at 1 uM for 24 hrs by […] analysis; assay type: functional, cell-based
[7] = tested on: A549; assay: Induction of apoptosis in human A549 cells assessed as early apoptotic cells at 1 uM in presence of cisplatin by annexin V-PI based flow cytometric analysis (reference value: 0.2%); assay type: functional
[8] = tested on: NCI-H460; assay: Induction of apoptosis in human NCI-H460 cells assessed as viable cells at 0.5 uM for 24 hrs by annexin V-PI staining based flow cytometric analysis (reference value: 94%); assay type: functional; conditions: read-out: Activity
[9] = tested on: NCI-H1373; assay: Induction of cell cycle arrest in human NCI-H1373 cells assessed as accumulation of cells at S phase at 0.5 uM for 24 hrs by Click-iT EdU Alexa Fluor 647 flow cytometric assay kit analysis (reference value: 45%); assay type: functional
[10] = tested on: SK-LU-1; assay: Downregulation of XIAP mRNA expression level in human SK-LU-1 cells at 0.1 to 1 uM for 24 hrs by qRT-PCR analysis; assay type: functional, cell-based; conditions: dose 0.1-1 µM
[11] = tested on: NCI-H23; assay: Downregulation of FLIP mRNA expression level in human NCI-H23 cells at 0.1 to 1 uM for 24 hrs by qRT-PCR analysis; assay type: functional, cell-based; conditions: dose 0.1-1 µM
[12] = tested on: LCLC-97TM1; assay: Downregulation of XIAP mRNA expression level in human LCLC-97TM1 cells at 0.1 to 1 uM for 24 hrs by qRT-PCR analysis; assay type: functional, cell-based; conditions: dose 0.1-1 µM
[13] = tested on: A549; assay: Induction of cell cycle arrest in human A549 cells assessed as accumulation of cells at G2/M phase at 1 uM for 24 hrs by Click-iT EdU Alexa Fluor 647 flow cytometric assay kit analysis (reference value: 3%); assay type: functional
[14] = tested on: A549; assay: Downregulation of c-MYC protein expression level in human A549 cells at 1 uM for 24 hrs by […] analysis; assay type: functional, cell-based
[15] = tested on: A549; assay: Induction of apoptosis in human A549 cells assessed as viable cells at 1 uM in presence of cisplatin by annexin V-PI based flow cytometric analysis (reference value: 95.7%); assay type: functional; conditions: read-out: Activity
[16] = tested on: NCI-H460; assay: Induction of apoptosis in human NCI-H460 cells assessed as early apoptotic cells at 0.5 uM for 24 hrs by annexin V-PI staining based flow cytometric analysis (reference value: 0.2%); assay type: functional
[17] = tested on: NCI-H1373; assay: Induction of cell cycle arrest in human NCI-H1373 cells assessed as accumulation of cells at S phase at 1 uM for 24 hrs by Click-iT EdU Alexa Fluor 647 flow cytometric assay kit analysis (reference value: 45%); assay type: functional
[18] = tested on: DV-90; assay: Induction of cell cycle arrest in human DV-90 cells assessed as accumulation of cells at G0/G1 phase at 0.25 uM for 24 hrs by Click-iT EdU Alexa Fluor 647 flow cytometric assay kit analysis (reference value: 44%); assay type: functional
[19] = tested on: NCI-H441; assay: Downregulation of c-MYC protein expression level in human NCI-H441 cells at 1 uM for 24 hrs by […] analysis; assay type: functional, cell-based
[20] = Toxicity in SCID mouse xenografted with human A549 cells assessed as body weight loss administered at 80 mg/kg, ip for 7 days along with cisplatin for 5 days follwed by compound treatment for 14 days relative to control; assay type: organism-based; conditions: in vivo, 672 h, time 28 day
[21] = tested on: NCI-H1373; assay: Induction of cell cycle arrest in human NCI-H1373 cells assessed as accumulation of cells at G0/G1 phase at 0.5 uM for 24 hrs by Click-iT EdU Alexa Fluor 647 flow cytometric assay kit analysis (reference value: 40%); assay type: functional
[22] = tested on: A549; assay: Induction of apoptosis in human A549 cells assessed as necrotic cells at 1 uM in presence of cisplatin by annexin V-PI based flow cytometric analysis (reference value: 1.6%); assay type: functional
[23] = tested on: A549; assay: Induction of apoptosis in human A549 cells assessed as early apoptotic cells at 0.5 uM for 24 hrs by annexin V-PI staining based flow cytometric analysis (reference value: 0.4%); assay type: functional
[24] = tested on: NCI-H2030; assay: Downregulation of XIAP protein expression level in human NCI-H2030 cells at 1 uM for 24 hrs by […] analysis; assay type: functional, cell-based
[25] = tested on: LCLC-97TM1; assay: Downregulation of FLIP mRNA expression level in human LCLC-97TM1 cells at 0.1 to 1 uM for 24 hrs by qRT-PCR analysis; assay type: functional, cell-based; conditions: dose 0.1-1 µM
[26] = tested on: NCI-H1373; assay: Induction of TRAIL dependent apoptosis in human NCI-H1373 cells assessed as viable cells at 1 uM in presence of […] by annexin V-PI staining based flow cytometric analysis (reference value: 87.6%); assay type: functional; conditions: read-out: Activity
[27] = tested on: NCI-H2030; assay: Downregulation of c-MYC protein expression level in human NCI-H2030 cells at 1 uM for 24 hrs by […] analysis; assay type: functional, cell-based
[28] = tested on: A549; assay: Induction of apoptosis in human A549 cells assessed as viable cells at 0.5 uM for 24 hrs by annexin V-PI staining based flow cytometric analysis (reference value: 96%); assay type: functional; conditions: read-out: Activity
[29] = tested on: NCI-H1373; assay: Induction of cell cycle arrest in human NCI-H1373 cells assessed as accumulation of cells at G0/G1 phase at 0.1 uM for 24 hrs by Click-iT EdU Alexa Fluor 647 flow cytometric assay kit analysis (reference value: 48%); assay type: functional
[30] = tested on: NCI-H460; assay: Induction of cell cycle arrest in human NCI-H460 cells assessed as accumulation of cells at G0/G1 phase at 0.25 uM for 24 hrs by Click-iT EdU Alexa Fluor 647 flow cytometric assay kit analysis (reference value: 45%); assay type: functional
[31] = tested on: NCI-H1373; assay: Induction of apoptosis in human NCI-H1373 cells assessed as early apoptotic cells at 0.5 uM for 24 hrs by annexin V-PI staining based flow cytometric analysis (reference value: 1.7%); assay type: functional
[32] = tested on: DV-90; assay: Induction of apoptosis in human DV-90 cells assessed as early apoptotic cells at 2.5 uM for 48 hrs by annexin V-PI staining based flow cytometric analysis (reference value: 1.0%)
[33] = tested on: A549; assay: Induction of apoptosis in human A549 cells assessed as early apoptotic cells at 0.5 uM for 24 hrs by annexin V-PI staining based flow cytometric analysis (reference value: 0.2%); assay type: functional

Structure (SMILES): Cc1sc2c(c1C)C(c1ccc(Cl)cc1)=N[C@@H](CC(=O)OC(C)(C)C)c1nnc(C)n1-2
- Activity [1]: Active
- Activity [2]: 36%
- Activity [3]: 32%
- viability at 2.5 µM [4]: 90.4%
- Activity [5]: Active
- Activity [6]: Active
- Activity [7]: 2.2%
- viability at 0.5 µM [8]: 91.2%
- Activity [9]: 12%
- Activity [10]: Active
- Activity [11]: Active
- Activity [12]: Active
- Activity [13]: 4%
- Activity [14]: Active
- viability at 1 µM [15]: 58.9%
- Activity [16]: 0.2%
- Activity [17]: 7%
- Activity [18]: 45%
- Activity [19]: Active
- T/C [20]: 10%
- Activity [21]: 63%
- Activity [22]: 10.3%
- Activity [23]: 0.1%
- Activity [24]: Active
- Activity [25]: Active
- viability at 1 µM [26]: 17.8%
- Activity [27]: Active
- viability at 0.5 µM [28]: 97.2%

Structure (SMILES): CCNC(=O)C[C@@H]1N=C(c2ccc(Cl)cc2)c2cc(OC)ccc2-n2c(C)nnc21 [MOLIBRESIB]
- Activity [29]: 47%
- Activity [30]: 43%

Structure (SMILES): Cc1sc2c(c1C)C(c1ccc(Cl)cc1)=N[C@@H](CC(=O)Nc1ccc(O)cc1)c1nnc(C)n1-2 [BIRABRESIB]
- Activity [31]: 2.6%
- Activity [32]: 2.6%
- Activity [33]: 0.1%

— ChEMBL document CHEMBL5712891, “Inhibition of BET bromodomain-dependent XIAP and FLIP expression sensitizes KRAS-mutated NSCLC to pro-apoptotic agents” (Cell Death Dis, 2016)
